These results are taken from article PMC8584303 (International Journal of Molecular Sciences, 2021).

Data set [1] has as its target T1, LdGSTu1 (Leptinotarsa decemlineata, UniProt A0A1P8PEY0).
T1 construct: full-length LdGSTu1
T1 sequence (A0A1P8PEY0 1-230): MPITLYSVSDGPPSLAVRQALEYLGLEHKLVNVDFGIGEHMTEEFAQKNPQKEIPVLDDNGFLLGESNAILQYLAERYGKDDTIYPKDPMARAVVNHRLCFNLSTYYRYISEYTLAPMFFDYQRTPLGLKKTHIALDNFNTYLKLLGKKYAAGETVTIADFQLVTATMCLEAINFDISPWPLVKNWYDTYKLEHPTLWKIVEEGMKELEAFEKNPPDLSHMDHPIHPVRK
Nature of the data set: steady-state enzyme kinetics of the purified enzyme (Km). The format is biochemical.

The target of data set [2] is T1, LdGSTu1. Nature of the data set: inhibition of GSH-CDNB conjugation by the recombinant enzyme (residual activity […] at […], […] at […]). In kind it is biochemical.
The target in data set [3] is T1, LdGSTu1. As to the kind of experiment: inhibition of GSH-CDNB conjugation by the recombinant enzyme (residual activity at […]). The format is biochemical.
Substrate in data set [4]: CC(=O)Oc1ccc([N+](=O)[O-])cc1
Nature of the data set: steady-state enzyme kinetics of the purified enzyme (Km). In kind it is biochemical, Leptinotarsa decemlineata. The settings on record: GSH.

On to `O=[N+]([O-])c1ccc(Cl)c([N+](=O)[O-])c1` [CDNB, 1-chloro-2,4-dinitrobenzene], for which, at LdGSTu1 [1], the Km turned out to be 542 ± 88 µM. With `C=C(CC)C(=O)c1ccc(OCC(=O)O)c(Cl)c1Cl` [EA, ethacrynic acid], the “%” value on LdGSTu1 [2] is recorded as 49.6% residual activity at 200 µM.

Take `C/C(=N\C#N)N(C)Cc1ccc(Cl)nc1` [acetamiprid]: the “%” value on LdGSTu1 [3] is reported as 39.1% residual activity at 5 mM. On the same count and under the same terms, the value for `CCOP(=S)(OCC)Oc1nc(Cl)c(Cl)cc1Cl` [chlorpyrifos] was 70.5% residual activity at 5 mM. On the same count and under the same terms, the value for `CCOP(=S)(OCC)Oc1cc(C)nc(C(C)C)n1` [diazinon] was 75.3% residual activity at 5 mM; that for `O=[N+]([O-])NC1=NCCN1Cc1ccc(Cl)nc1` [imidacloprid] was 66.4% residual activity at 5 mM. Consider `CN1COCN(Cc2cnc(Cl)s2)/C1=N\[N+](=O)[O-]` [thiamethoxam], for which the “%” value at LdGSTu1 [3] is listed as 72.3% residual activity at 5 mM.

B1: LdGSTu1 (Leptinotarsa decemlineata) (protein)
chain: MPITLYSVSDGPPSLAVRQALEYLGLEHKLVNVDFGIGEHMTEEFAQKNPQKEIPVLDDNGFLLGESNAILQYLAERYGKDDTIYPKDPMARAVVNHRLCFNLSTYYRYISEYTLAPMFFDYQRTPLGLKKTHIALDNFNTYLKLLGKKYAAGETVTIADFQLVTATMCLEAINFDISPWPLVKNWYDTYKLEHPTLWKIVEEGMKELEAFEKNPPDLSHMDHPIHPVRK
notes: full-length LdGSTu1
In the case of B1, in data set [4], the Km was found to be 1.830 ± 0.572 mM, the Vmax amounted to 13.5 µM/min, the kcat came out at 0.128 ± 0.0202 s⁻¹ and the kcat/Km was 70 M⁻¹ s⁻¹.
